Measured values taken from patent publication US8686044B2, “Amide derivative, pest control agent containing the amide derivative, and use of the amide derivative” (Mitsui Chemicals Agro, Inc., priority 2008, dated 2014).

Key:
Type in all cases: in vivo
Spodoptera litura = assay: Pesticidal test against Spodoptera litura (cabbage leaf dip); conditions: foliar, 144 h, concentration 1 ppm, 2-stage larvae, examined after 6 days, 25° C., read-out: pesticidal rate
In short: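 Cabbage leaf pieces dipped 30 seconds in compound solution at a predetermined concentration and air-dried, then offered to second-stage larvae, five per group in two replicates. Held at 25° C. Living and dead larvae counted after 6 days.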

Adoxophyes honmai = assay: Pesticidal test against Adoxophyes honmai (artificial feed dip); conditions: 144 h, 2-stage larvae, examined after 6 days, 25° C., read-out: pesticidal rate; for pest or weed control at 1 ppm: concentration 1 ppm; for pest or weed control at 10 ppm: concentration 10 ppm
Method: (§1) Pesticidal Test against Adoxophyes honmai A thinly sliced artificial feed was immersed for 30 seconds in a chemical solution in which a test compound had been prepared at a predetermined concentration, and air-dried, and then put into a 7 cm polyethylene cup having a filter paper laid on the bottom thereof, and 2-stage larvae of Adoxophyes honmai were released. They were left to stand in a thermostatic chamber at 25° C., and the numbers of the living pests and the dead pests were examined after 6 days. The test was carried out with five larvae per group in two replicates. Further, the above compound (A) was used as a comparative compound.

Musca domestica = assay: Pesticidal test against Musca domestica (petri dish dry film); conditions: 24 h, concentration 100 ppm, female adults, examined after 1 day, 25° C., read-out: pesticidal rate
In short: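 Dry film from 1 ml acetone solution of compound at a predetermined concentration, air-dried in a 9 cm petri dish; female adult flies released and dish capped. Held at 25° C; living and dead counted after 1 day. Five insects per group, two replicates.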

Laodelphax striatellus = assay: Pesticidal test against Laodelphax striatellus (rice seedling spray); conditions: 144 h, concentration 100 ppm, 3-stage larvae, examined after 6 days, 25° C., read-out: pesticidal rate
In short: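 Rice seedlings sprayed with 2.5 ml acetone solution of compound at a predetermined concentration, air-dried, then infested with third-stage Laodelphax striatellus larvae in capped water-containing tubes at 25 °C. Living and dead insects counted after 6 days; ten larvae per group, two replicates.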

Helicoverpa armigera = assay: Pesticidal test against Helicoverpa armigera (cabbage leaf disk dip); conditions: foliar, 72 h, concentration 1 ppm, 2-stage larvae, examined after 3 days, 25° C., read-out: pesticidal rate
Method: as §1, with “Helicoverpa armigera” for “Adoxophyes honmai”, “cabbage leaf disk” for “thinly sliced artificial feed”, “air-dried. The leaf disk was” for “air-dried, and then”, “6-hole plastic” for “7 cm polyethylene”, “released with one insect being released per hole.” for “released.”, “3” for “6”

Choristoneura magnanima = assay: Pesticidal test against Choristoneura magnanima (artificial feed dip); conditions: 144 h, 2-stage larvae, examined after 6 days, 25° C., read-out: pesticidal rate; for pest or weed control at 1 ppm: concentration 1 ppm
Method: as §1, with “Choristoneura magnanima” for “Adoxophyes honmai”

Plutella xylostella = assay: Pesticidal test against Plutella xylostella (cabbage leaf dip); conditions: foliar, 144 h, concentration 1 ppm, 2-stage larvae, examined after 6 days, 25° C., read-out: pesticidal rate
In short: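 Cabbage leaf pieces dipped 30 s in test solution at a predetermined concentration, air-dried, then offered to 2nd-instar larvae, five per group in duplicate. Held at 25° C; living and dead larvae counted after 6 days.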

O=C(Nc1c(I)cc(C(F)(C(F)(F)F)C(F)(F)C(F)(F)F)cc1I)c1cccc(NC(=O)c2ccccc2F)c1 (stereo not shown) [6-72]
≥ 70%: pest or weed control at 1 ppm (Spodoptera litura) | pest or weed control at 1 ppm (Adoxophyes honmai) | pest or weed control at 100 ppm (Musca domestica) | pest or weed control at 100 ppm (Laodelphax striatellus) | pest or weed control at 1 ppm (Helicoverpa armigera) | pest or weed control at 1 ppm (Choristoneura magnanima) | pest or weed control at 1 ppm (Plutella xylostella)

N#Cc1cccc(C(=O)Nc2cccc(C(=O)Nc3c(Br)cc(C(F)(C(F)(F)F)C(F)(F)C(F)(F)F)cc3C(F)(F)F)c2)c1 (stereo not shown) [6-366]
≥ 70%: pest or weed control at 1 ppm (Spodoptera litura) | pest or weed control at 1 ppm (Adoxophyes honmai) | pest or weed control at 100 ppm (Musca domestica) | pest or weed control at 1 ppm (Helicoverpa armigera) | pest or weed control at 1 ppm (Choristoneura magnanima) | pest or weed control at 1 ppm (Plutella xylostella)

N#Cc1cccc(C(=O)Nc2cccc(C(=O)Nc3c(Br)cc(C(F)(C(F)(F)F)C(F)(F)C(F)(F)F)cc3C(F)(F)F)c2F)c1 (stereo not shown) [6-1672]
≥ 70%: pest or weed control at 1 ppm (Spodoptera litura) | pest or weed control at 1 ppm (Adoxophyes honmai) | pest or weed control at 100 ppm (Musca domestica) | pest or weed control at 100 ppm (Laodelphax striatellus) | pest or weed control at 1 ppm (Helicoverpa armigera) | pest or weed control at 1 ppm (Choristoneura magnanima) | pest or weed control at 1 ppm (Plutella xylostella)

O=C(Nc1cccc(C(=O)Nc2c(Br)cc(C(F)(C(F)(F)F)C(F)(F)C(F)(F)F)cc2C(F)(F)F)c1F)c1ccc(Cl)nc1 (stereo not shown) [6-1695]
≥ 70%: pest or weed control at 1 ppm (Spodoptera litura) | pest or weed control at 10 ppm (Adoxophyes honmai) | pest or weed control at 100 ppm (Musca domestica) | pest or weed control at 100 ppm (Laodelphax striatellus) | pest or weed control at 1 ppm (Helicoverpa armigera) | pest or weed control at 1 ppm (Choristoneura magnanima) | pest or weed control at 1 ppm (Plutella xylostella)

O=C(Nc1cccc(C(=O)Nc2c(I)cc(C(F)(C(F)(F)F)C(F)(F)C(F)(F)F)cc2C(F)(F)F)c1F)c1ccccc1F (stereo not shown) [6-1809]
≥ 70%: pest or weed control at 1 ppm (Spodoptera litura) | pest or weed control at 1 ppm (Adoxophyes honmai) | pest or weed control at 100 ppm (Musca domestica) | pest or weed control at 100 ppm (Laodelphax striatellus) | pest or weed control at 1 ppm (Helicoverpa armigera) | pest or weed control at 1 ppm (Choristoneura magnanima) | pest or weed control at 1 ppm (Plutella xylostella)

N#Cc1cccc(C(=O)Nc2cccc(C(=O)Nc3c(I)cc(C(F)(C(F)(F)F)C(F)(F)C(F)(F)F)cc3C(F)(F)F)c2F)c1 (stereo not shown) [6-1828]
≥ 70%: pest or weed control at 1 ppm (Spodoptera litura) | pest or weed control at 1 ppm (Adoxophyes honmai) | pest or weed control at 100 ppm (Musca domestica) | pest or weed control at 100 ppm (Laodelphax striatellus) | pest or weed control at 1 ppm (Helicoverpa armigera) | pest or weed control at 1 ppm (Choristoneura magnanima) | pest or weed control at 1 ppm (Plutella xylostella)

O=C(Nc1c(I)cc(C(F)(C(F)(F)F)C(F)(F)C(F)(F)F)cc1C(F)(F)F)c1cccc(NC(=O)c2c(F)cccc2F)c1F (stereo not shown) [6-1830]
≥ 70%: pest or weed control at 1 ppm (Spodoptera litura) | pest or weed control at 1 ppm (Adoxophyes honmai) | pest or weed control at 100 ppm (Musca domestica) | pest or weed control at 100 ppm (Laodelphax striatellus) | pest or weed control at 1 ppm (Helicoverpa armigera) | pest or weed control at 1 ppm (Choristoneura magnanima) | pest or weed control at 1 ppm (Plutella xylostella)

O=C(Nc1cccc(C(=O)Nc2c(I)cc(C(F)(C(F)(F)F)C(F)(F)C(F)(F)F)cc2C(F)(F)F)c1F)c1ccc(Cl)nc1 (stereo not shown) [6-1851]
≥ 70%: pest or weed control at 1 ppm (Spodoptera litura) | pest or weed control at 10 ppm (Adoxophyes honmai) | pest or weed control at 100 ppm (Musca domestica) | pest or weed control at 100 ppm (Laodelphax striatellus) | pest or weed control at 1 ppm (Helicoverpa armigera) | pest or weed control at 1 ppm (Choristoneura magnanima) | pest or weed control at 1 ppm (Plutella xylostella)

O=C(Nc1cccc(C(=O)Nc2c(C(F)(F)F)cc(C(F)(C(F)(F)F)C(F)(F)F)cc2C(F)(F)F)c1F)c1ccccc1 [6-2110, 3-benzamide-2-fluoro-N-(4-(perfluoropropan-2-yl)-2,6-bis(trifluoromethyl)phenyl)benzamide]
≥ 70%: pest or weed control at 1 ppm (Spodoptera litura) | pest or weed control at 10 ppm (Adoxophyes honmai) | pest or weed control at 100 ppm (Musca domestica) | pest or weed control at 100 ppm (Laodelphax striatellus) | pest or weed control at 1 ppm (Helicoverpa armigera) | pest or weed control at 10 ppm (Choristoneura magnanima; concentration 10 ppm) | pest or weed control at 1 ppm (Plutella xylostella)

CN(C(=O)c1cccc(F)c1)c1cccc(C(=O)Nc2c(Br)cc(C(F)(C(F)(F)F)C(F)(F)C(F)(F)F)cc2C(F)(F)F)c1 (stereo not shown) [7-348]
≥ 70%: pest or weed control at 1 ppm (Spodoptera litura) | pest or weed control at 1 ppm (Adoxophyes honmai) | pest or weed control at 100 ppm (Musca domestica) | pest or weed control at 100 ppm (Laodelphax striatellus) | pest or weed control at 1 ppm (Helicoverpa armigera) | pest or weed control at 1 ppm (Choristoneura magnanima) | pest or weed control at 1 ppm (Plutella xylostella)

CN(C(=O)c1cccc(C#N)c1)c1cccc(C(=O)Nc2c(Br)cc(C(F)(C(F)(F)F)C(F)(F)C(F)(F)F)cc2C(F)(F)F)c1 (stereo not shown) [7-366]
≥ 70%: pest or weed control at 1 ppm (Spodoptera litura) | pest or weed control at 1 ppm (Adoxophyes honmai) | pest or weed control at 100 ppm (Musca domestica) | pest or weed control at 1 ppm (Helicoverpa armigera) | pest or weed control at 1 ppm (Choristoneura magnanima) | pest or weed control at 1 ppm (Plutella xylostella)

CN(C(=O)c1cccc(C#N)c1)c1cccc(C(=O)Nc2c(I)cc(C(F)(C(F)(F)F)C(F)(F)C(F)(F)F)cc2I)c1F (stereo not shown) [7-1358]
≥ 70%: pest or weed control at 1 ppm (Spodoptera litura) | pest or weed control at 1 ppm (Adoxophyes honmai) | pest or weed control at 100 ppm (Musca domestica) | pest or weed control at 100 ppm (Laodelphax striatellus) | pest or weed control at 1 ppm (Helicoverpa armigera) | pest or weed control at 1 ppm (Choristoneura magnanima) | pest or weed control at 1 ppm (Plutella xylostella)

CN(C(=O)c1cc(C#N)cc(C#N)c1)c1cccc(C(=O)Nc2c(Br)cc(C(F)(C(F)(F)F)C(F)(F)F)cc2C(F)(F)F)c1F [7-1605]
≥ 70%: pest or weed control at 1 ppm (Spodoptera litura) | pest or weed control at 1 ppm (Adoxophyes honmai) | pest or weed control at 100 ppm (Laodelphax striatellus) | pest or weed control at 1 ppm (Helicoverpa armigera) | pest or weed control at 1 ppm (Choristoneura magnanima) | pest or weed control at 1 ppm (Plutella xylostella)

CN(C(=O)c1ccc(F)nc1)c1cccc(C(=O)Nc2c(Br)cc(C(F)(C(F)(F)F)C(F)(F)F)cc2C(F)(F)F)c1F [7-1616]
≥ 70%: pest or weed control at 1 ppm (Spodoptera litura) | pest or weed control at 10 ppm (Adoxophyes honmai) | pest or weed control at 100 ppm (Laodelphax striatellus) | pest or weed control at 1 ppm (Helicoverpa armigera) | pest or weed control at 1 ppm (Choristoneura magnanima) | pest or weed control at 1 ppm (Plutella xylostella)

CN(C(=O)c1ccccc1)c1cccc(C(=O)Nc2c(Br)cc(C(F)(C(F)(F)F)C(F)(F)C(F)(F)F)cc2C(F)(F)F)c1F (stereo not shown) [7-1652]
≥ 70%: pest or weed control at 1 ppm (Spodoptera litura) | pest or weed control at 1 ppm (Adoxophyes honmai) | pest or weed control at 100 ppm (Musca domestica) | pest or weed control at 100 ppm (Laodelphax striatellus) | pest or weed control at 1 ppm (Helicoverpa armigera) | pest or weed control at 1 ppm (Choristoneura magnanima) | pest or weed control at 1 ppm (Plutella xylostella)

CN(C(=O)c1cccnc1)c1cccc(C(=O)Nc2c(I)cc(C(F)(C(F)(F)F)C(F)(F)F)cc2C(F)(F)F)c1F [7-1764]
≥ 70%: pest or weed control at 1 ppm (Spodoptera litura) | pest or weed control at 1 ppm (Adoxophyes honmai) | pest or weed control at 100 ppm (Musca domestica) | pest or weed control at 100 ppm (Laodelphax striatellus) | pest or weed control at 1 ppm (Helicoverpa armigera) | pest or weed control at 1 ppm (Choristoneura magnanima) | pest or weed control at 1 ppm (Plutella xylostella)

CN(C(=O)c1ccccc1)c1cccc(C(=O)Nc2c(I)cc(C(F)(C(F)(F)F)C(F)(F)C(F)(F)F)cc2C(F)(F)F)c1F (stereo not shown) [7-1808]
≥ 70%: pest or weed control at 1 ppm (Spodoptera litura) | pest or weed control at 1 ppm (Adoxophyes honmai) | pest or weed control at 100 ppm (Musca domestica) | pest or weed control at 100 ppm (Laodelphax striatellus) | pest or weed control at 1 ppm (Helicoverpa armigera) | pest or weed control at 1 ppm (Choristoneura magnanima) | pest or weed control at 1 ppm (Plutella xylostella)

CN(C(=O)c1ccccc1F)c1cccc(C(=O)Nc2c(I)cc(C(F)(C(F)(F)F)C(F)(F)C(F)(F)F)cc2C(F)(F)F)c1F (stereo not shown) [7-1809]
≥ 70%: pest or weed control at 1 ppm (Spodoptera litura) | pest or weed control at 1 ppm (Adoxophyes honmai) | pest or weed control at 100 ppm (Musca domestica) | pest or weed control at 100 ppm (Laodelphax striatellus) | pest or weed control at 1 ppm (Helicoverpa armigera) | pest or weed control at 1 ppm (Choristoneura magnanima) | pest or weed control at 1 ppm (Plutella xylostella)

CN(C(=O)c1cccc(F)c1)c1cccc(C(=O)Nc2c(I)cc(C(F)(C(F)(F)F)C(F)(F)C(F)(F)F)cc2C(F)(F)F)c1F (stereo not shown) [7-1810]
≥ 70%: pest or weed control at 1 ppm (Spodoptera litura) | pest or weed control at 1 ppm (Adoxophyes honmai) | pest or weed control at 100 ppm (Musca domestica) | pest or weed control at 100 ppm (Laodelphax striatellus) | pest or weed control at 1 ppm (Helicoverpa armigera) | pest or weed control at 1 ppm (Choristoneura magnanima) | pest or weed control at 1 ppm (Plutella xylostella)

CN(C(=O)c1ccc(F)cc1)c1cccc(C(=O)Nc2c(I)cc(C(F)(C(F)(F)F)C(F)(F)C(F)(F)F)cc2C(F)(F)F)c1F (stereo not shown) [7-1811]
≥ 70%: pest or weed control at 1 ppm (Spodoptera litura) | pest or weed control at 1 ppm (Adoxophyes honmai) | pest or weed control at 100 ppm (Musca domestica) | pest or weed control at 100 ppm (Laodelphax striatellus) | pest or weed control at 1 ppm (Helicoverpa armigera) | pest or weed control at 1 ppm (Choristoneura magnanima) | pest or weed control at 1 ppm (Plutella xylostella)
